Measurements published in patent US10048562B2, “Electrophoretic fluid” (Merck Patent GmbH, priority 2012, dated 2018).

Assay: Saturation of dye in decane (solubility)
Format: physicochemical
Settings: saturated solution in decane

Saturation wt % in decane	Compound
0.19 wt %	CCCCCCCCN(CCCCCCCC)c1ccc(/N=N/c2snc(C)c2C#N)c(NC(C)=O)c1 [Dye 4, N-(2-((4-Cyano-3-methylisothiazol-5-yl)diazenyl)-5-(dioctylamino)phenyl)acetamide]
0.003 wt %	CCCCCCCCCCCCCCCCCCN(CCCCCCCCCCCCCCCCCC)c1cc(NC(C)=O)c(/N=N/c2c(C#N)cc([N+](=O)[O-])cc2C#N)cc1OC [Dye 1]
1.03 wt %	CCCCCCCCCCCCCCc1ccc(/N=N/c2c(C)c(C#N)c(=O)n(CC(CC)CCCC)c2O)cc1 (stereo not drawn) [Dye 5, (E)-1-(2-Ethylhexyl)-6-hydroxy-4-methyl-2-oxo-5-((4-tetradecylphenyl)diazenyl)-1,2-dihydropyridine-3-carbonitrile]
9.95 wt %	CCCCc1ccc(/N=N/c2ccc(N(CCCC)CCCC)cc2)cc1 [Dye 7]
10.50 wt %	CCCCCCCCN(CCCCCCCC)c1ccc(/N=N/c2ccc([N+](=O)[O-])cc2)c(C)c1 [Dye 8, (E)-3-Methyl-4-((4-nitrophenyl)diazenyl)-N,N-dioctylaniline]
3.72 wt %	CCCCCCCCCCCCCCc1ccc(/N=N/c2c(C)cc(=O)n(CC(CC)CCCC)c2O)cc1 (stereo not drawn) [Dye 6, (E)-1-(2-ethylhexyl)-6-hydroxy-4-methyl-5-((4-tetradecylphenyl)diazenyl)pyridin-2(1H)-one]
